These results are taken from patent publication US20220193060A1, “Inhibition of IL-1 Induced Inflammation” (THIOLAB, LLC., priority 2019, published 2022).

“Also recorded” adds a separate entry of the source.

One data set relates to THP-1 cells. The data set is described as follows: Cell viability of CPDS-treated THP-1 cells. Type of data set: cell-based, human. As to the method:
(§1) Methodology: The study included replicated tests of IL-1β levels with and without CPDS, as well as reference testing of untreated cells and cells treated with lactoferrin and clobetasol. A third test was conducted of IL-1 receptor […] (IL-1RA) receptor, to assist in distinguishing whether reductions in IL-1β levels were associated with secretion or receptor blocking (via the receptor antagonist). Cell viability studies were conducted for both sets of tests. 1. THP-1 cells were grown in (RPMI+10% FBS, 10 mM HEPES, 1 mM Sodium Pyruvate, and 0.05 mM 2-Mecaptpethanol) to P8. 2. Cells were plated at 30,000 cells per well in 120 ul with Media+20 ng/ml PMA+2× Genta. 3. […] Cells were treated according to plan below. 5. Cells were incubated for three more days at 37° C. and 5% CO2. 6. Cell supernatant were collected and ELISA was measured for IL-1RA, IL-1α, and IL-1β. 7. Plate was read at 490 nm until O.D reached 1.5.

The subject of the next data set is IL-1RA. The data set is described as follows: human IL-1RA (receptor antagonist) ELISA, THP-1 supernatant. Type of data set: cell-based. As to the method: as §1, with “1.5. In order to determine whether the reduction in IL-1β was from blocking of secretion or from blocking of the receptor, a human IL-1RA (receptor antagonist) ELISA test was performed.” for “1.5.”
(In an ELISA, binding on a coated surface is turned into a signal by an enzyme label.)

Another data set relates to poison oak. The data set is described as follows: Case: topical CPDS for poison oak exposure. It is filed as in vivo, human. As to the method: An individual was exposed to poison oak on their left arm through physical contact. They developed a rash and other symptoms of inflammation such as redness, itching, burning sensation, and swelling. The individual was treated using topical application a cream containing 1% CPDS by weight. The cream was applied every two hours on the first day, and thereafter two to three times a day. The cream contained water, mineral oil, stearic acid, triethanolamine, propylene glycol, glyceryl stearate, stearyl alcohol, dirnethicone, isopropyl palmitate, cetyl alcohol, lactic acid, retinyl acetate, tocopheryl acetate, hydrolyzed collagen, fragrance, methylparaben, and O&C red #33. The individual was treated alternatively with 1% CPDS by weight in an ointment containing white petroleum and mineral oil.

The subject of the next data set is colonic polyps. The data set is described as follows: Case: oral CPDS for colonic polyps. Type of data set: in vivo, human. The following applies: person; oral 140 mg per day; 1, 3, 9, and 10 months. As to the method:
An individual was diagnosed with colon neoplasia. About one month after the initial diagnosis, the individual underwent semi colotomy at which time about 45 cm of their colon was removed. […] The polyps were cauterized at that time. About one month later, the individual began treatment with CPDS which was administered orally at a dose of 140 mg per day.

The next data set relates to IP-10. The data set is described as follows: LPS-stimulated RAW 264.7 cells, IP-10 secretion. It is filed as cell-based. The note with it: murine RAW 264.7 cells, pre-treatment prior to LPS.
A further data set relates to IL-10. The data set is described as follows: LPS-stimulated macrophages, IL-10 ELISA. The note with it: CPDS (e.g., 50 μM) 90 minutes before LPS (10 ug/ml), 24 to 48 hours. It is filed as cell-based, murine. As to the method: An in vitro model of inflammation mediated by macrophages is used. Primary macrophages isolated from humans or non-human species (e.g., mice or rats) were used. A murine macrophage cell line RAW264.7 (CCRL-2278) was also used. Macrophages are treated with CPDS. […] Then the effect of CPDS on inflammation is assessed by comparing the levels of […] mediators IL-6 and IL-10. IL-10 and IL-6 were determined by ELISA. The level of IL-6 and IL-10 were compared to the level prior to CPDS treatment.

Description for IP-10: An in vitro model of inflammation mediated by macrophages is used. […] A murine macrophage cell line RAW264.7 (CCRL-2278) was also used. Macrophages are treated with CPDS. […] Then the effect of CPDS on inflammation is assessed by comparing the levels of anti-inflammatory mediators IL-6 and IL-10. IL-10 and IL-6 were determined by ELISA. The level of IL-6 and IL-10 were compared to the level prior to CPDS treatment. […] In addition we measured decrease in the secretion of IP-10.

A word on the cell viability: it is the share of living cells, or the viability signal relative to a control. As to `O=C(O)c1ccc(SSc2ccc(C(=O)O)cn2)nc1` [CPDS, 6,6′-dithiodinicotinic acid], the cell viability entry is “slight decline in viability” in the data set with THP-1 cells (200 μM) and no less than 100% in the data set with THP-1 cells (all CPDS concentrations except 200 μM, both tests). In addition, the “reduction of IL-1RA” value is recorded as 60% in the data set on IL-1RA (100 μM) and 76% with IL-1RA (200 μM). For the same compound, the “effect on IL-1RA production” value in the data set on IL-1RA (all concentrations lower than 100 μM) was “did not affect; also recorded: no effect”. For the same compound, in the data set with poison oak (person, topical cream or ointment with 1% CPDS by weight), the itching and burning result is “dissipated immediately”. For the same compound, the recurrence of symptoms result in the data set on poison oak (topical 1% CPDS by weight) is listed as “did not recur”. Further, the redness and swelling entry in the data set on poison oak (topical 1% CPDS by weight) is given as “disappeared in about one week”. Besides, in the data set with poison oak (topical 1% CPDS by weight), the “spread of rash to other parts of the body” value is recorded as “did not spread”. In addition, the “growth of polyps at check-up visits” value in the data set with colonic polyps is listed as “no new growth”. In addition, the “secretion of IP-10” value with IP-10 is “decrease”. Besides, the “expression level of IL-10” value with IL-10 is “dramatically reduced”.
